The assay has as its target His-tagged recombinant human Gal-3 (hGal-3) (Homo sapiens, UniProt P17931). In words: Gal-3 HTRF assay: His-tagged hGal-3 binding to B-ASF, Anti-His terbium antibody / Streptavidin d2 detection.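 Further: compound preincubated 30 min with hGal-3, then 1 h with B-ASF, DMSO wells with B-ASF serving as positive control and those lacking B-ASF as negative control.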 The note with it: 15 nM hGal-3, 15 nM B-ASF, three replicates, room temperature. (In general: In TR-FRET formats the signal depends on donor and acceptor labels being close together.)
Chain of His-tagged recombinant human Gal-3 (hGal-3) (P17931 whole entry): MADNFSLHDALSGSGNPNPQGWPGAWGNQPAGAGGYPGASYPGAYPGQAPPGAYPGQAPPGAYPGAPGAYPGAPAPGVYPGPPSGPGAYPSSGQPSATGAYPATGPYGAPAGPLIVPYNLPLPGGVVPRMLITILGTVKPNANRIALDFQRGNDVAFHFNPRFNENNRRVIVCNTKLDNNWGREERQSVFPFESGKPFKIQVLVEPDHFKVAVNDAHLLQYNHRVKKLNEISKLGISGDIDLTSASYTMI
Regarding `CO[C@@H]1[C@@H](n2cc(-c3ccc4ccccc4c3)nn2)[C@@H](O)[C@@H](CO)O[C@H]1S[C@@H]1COC[C@H](n2cc(-c3ccccc3)nn2)[C@H]1O` [Example A10, (2R,3R,4S,5R,6S)-6-(((3R,4R,5S)-4-hydroxy-5-(4-phenyl-1H-1,2,3-triazol-1-yl)tetrahydro-2H-pyran-3-yl)thio)-2-(hydroxymethyl)-5-methoxy-4-(4-(naphthalen-2-yl)-1H-1,2,3-triazol-1-yl)tetrahydro-2H-pyran-3-ol], the IC50 was 330 nM.

As for `COC(=O)C12CCC(c3cn(C4C(O)C(CO)OC(SC5COCC(n6cc(-c7ccccc7)nn6)C5O)C4OC)nn3)(CC1)CC2` [Example A11, methyl 4-(1-((2R,3R,4S,5R,6S)-3-hydroxy-6-(((3R,4R,5S)-4-hydroxy-5-(4-phenyl-1H)-1,2,3-triazol-1-yl)tetrahydro-2H-pyran-3-yl)thio)-2-(hydroxymethyl)-5-methoxytetrahydro-2H-pyran-4-yl)-1H-1,2,3-triazol-4-yl)bicyclo[2.2.2]octane-1-carboxylate], the concentration for half-maximal inhibition (IC50) is 1860 nM.

Turning to `CO[C@@H]1[C@@H](NC(=O)c2cc(F)c(F)c(F)c2)[C@@H](O)[C@@H](CO)O[C@H]1S[C@@H]1COC[C@H](n2cc(-c3ccccc3)nn2)[C@H]1O` [Example A12, 3,4,5-trifluoro-N-((2R,3R,4S,5R,6S)-3-hydroxy-6-(((3R,4R,5S)-4-hydroxy-5-(4-phenyl-1H-1,2,3-triazol-1-yl)tetrahydro-2H-pyran-3-yl)thio)-2-(hydroxymethyl)-5-methoxytetrahydro-2H-pyran-4-yl)benzamide], the IC50 was 1400 nM.

With `COc1c(F)c(F)c(C(=O)N[C@H]2[C@@H](O)[C@@H](CO)O[C@@H](S[C@@H]3COC[C@H](n4cc(-c5ccccc5)nn4)[C@H]3O)[C@@H]2OC)c(F)c1F` [Example A13, 2,3,5,6-tetrafluoro-N-((2R,3R,4S,5R,6S)-3-hydroxy-6-(((3R,4R,5S)-4-hydroxy-5-(4-phenyl-1H-1,2,3-triazol-1-yl)tetrahydro-2H-pyran-3-yl)thio)-2-(hydroxymethyl)-5-methoxytetrahydro-2H-pyran-4-yl)-4-methoxybenzamide], the IC50 came out at 570 nM.

Consider `COC1C(SC2CNCC(n3cc(-c4cccc(F)c4)nn3)C2O)OC(CO)C(O)C1n1cc(-c2cc(F)c(F)c(F)c2)nn1` (centres unmarked) [Example B1], for which the IC50 amounted to 67 nM.

Consider `COC1C(SC2CN(C(C)=O)CC(n3cc(-c4cccc(F)c4)nn3)C2O)OC(CO)C(O)C1n1cc(-c2cc(F)c(F)c(F)c2)nn1` (centres unmarked) [Example B2], for which the half-inhibitory concentration (IC50) turned out to be 37 nM.

Turning to `COC1C(SC2CN(C(C)=O)CC(n3cc(-c4cccc(F)c4)nn3)C2O)OC(CO)C(O)C1n1cc(-c2cccc(F)c2)nn1` [Example B3, 1-((3S,4R,5R)-3-(4-(3-fluorophenyl)-1H-1,2,3-triazol-1-yl)-5-(((2S,3R,4S,5R,6R)-4-(4-(3-fluorophenyl)-1H-1,2,3-triazol-1-yl)-5-hydroxy-6-(hydroxymethyl)-3-methoxytetrahydro-2H-pyran-2-yl)thio)-4-hydroxypipeddin-1-yl)ethan-1-one], the concentration for half-maximal inhibition (IC50) was 54 nM.

As to `CC(=O)N1C[C@@H](S[C@@H]2O[C@H](CO)[C@H](O)[C@H](n3cc(-c4cc(F)c(F)c(F)c4)nn3)[C@H]2OCC(=O)O)[C@H](O)[C@@H](n2cc(-c3cccc(F)c3)nn2)C1` [Example B4, 2-(((2S,3R,4S,5R,6R)-2-(((3R,4R,5S)-1-acetyl-5-(4-(3-fluorophenyl)-1H-1,2,3-triazol-1-yl)-4-hydroxypiperidin-3-yl)thio)-5-hydroxy-6-(hydroxymethyl)-4-(4-(3,4,5-trifluorophenyl)-1H-1,2,3-triazol-1-yl)tetrahydro-2H-pyran-3-yl)oxy)acetic acid], the IC50 came out at 32 nM.

By IC50 is commonly meant the point on the concentration scale where inhibition reaches its midpoint.
